The nature of series [1]: Preclinical rat pharmacokinetic test. Format: in vivo. The settings on record: male SD rats, gavage (p.o.), 10 mg/kg, plasma; for AUC(0-t) / Cmax / Tmax: Sprague-Dawley (SD), rat, po. The procedure: Healthy adult SD rats, male, 6-8 weeks old, weighing 200-300 g. EDTA-Na2 anticoagulant. Analytical balance, animal weight scale, magnetic stirrer, freezing centrifuge, single-channel manual pipette. About 10 mg of the sample to be tested was precisely weighed, the converted 5% DMSO was added to dissolve, and then 10 percent solutol HS-15 and 85% saline were added, ultrasonic treatment was performed, vortex mixed, to obtain the solution having a concentration of 1 mg/mL; freshly prepared before use. Animals were kept in rat cages and fasted (not less than 10 h) the day before the test, but not water fasted; on the day of the test, they were weighed and labeled at the tail. Blank blood was collected before drug administration. Blood was collected from the tail vein. • Route of administration: gavage (p.o.). • Dose: 10 mg/kg • Administration volume: 10 mL/kg • Operation procedure: Hold the rat with the left hand with anti-biting gloves, made it stand upright, extent the 16-gauge gavage needle from the throat in the mouth, and then injected the drug into the stomach when there was no obvious resistance. Before and 0.5 […] and 24 h after the administration of the drug, 0.1 ml of whole blood from the test animal was collected in EDTA-Na2 anticoagulant tubes, which was mixed upside down for 3-4 times and then centrifuged at 10,000 g for 5 min at 4° C. to isolate the plasma, which was stored at -80° C. for testing. Blood was collected from the tail vein. […] Pipetted 25 μL of rat blank plasma in a centrifuge tube respectively, added 25 μL of prepared standard series solution (prepared in methanol), then added 200 μL of internal standard solution (prepared in methanol), vortexed and mixed for 2 min, centrifuged at 4° C., 10,000 g for 10 min. Unknown plasma samples treatment: 25 μL of rat plasma containing drug was aspirated, 25 μL of methanol and 200 μL of internal standard solution were added sequentially, vortexed and mixed for 2 min, and then centrifuged at 4° C. and 10,000 g for 10 min. The supernatant was extracted for LC/MS/MS detection. Shimadzu liquid phase and Triple Quad TM 6500+AB mass spectrometry were utilized to establish a quantitative assay for the compounds to be tested. The pro-drug concentration in plasma was determined. The blood drug concentration-time curves were plotted, and the main pharmacokinetic parameters were calculated using the non-compartment model in winnonlin Phoenix software, and the detailed data were shown in Table 3.

The subject of series [2] is Human breast cancer cell MCF-7. Nature of the series: Cellular antiproliferative assay (MTT, 5 days), MCF-7. Format: cell-based. The settings on record: Homo sapiens, MCF7, 120 h, MCF-7 cells, 5 days incubation. A digest of the protocol:
(§1)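 MTT read-out at 570 nm after 3 h MTT incubation and isopropanol/HCl/NP-40 solubilisation; cells seeded at 50,000 cells/ml in DMEM with 10% FBS, 37 °C, 5% CO2, compound exposure 5 days. Viability calculated relative to 0.1% DMSO control and blank medium.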

The test system of series [3] is ovarian cancer cell A2780. As to the kind of experiment: Cellular antiproliferative assay (MTT, 5 days), A2780. The format is cell-based, human. Particulars: Homo sapiens, 120 h, A2780 cells, 5 days incubation. An outline of the steps:
as §1

For series [4], the system named is human mantle cell lymphoma cell JEKO-1. Nature of the series: Cellular antiproliferative assay (MTT, 5 days), JEKO-1. Format: cell-based. Particulars: Homo sapiens, 120 h, JEKO-1 cells, 5 days incubation. An outline of the steps: as §1

For orientation: IC50 means the concentration that inhibits the measured activity by half. High values mean lower potency, low ones higher potency. Usually AUC(0-t) stands for exposure summed from dosing to a finite time, without extrapolation to infinity. A lower AUC(0-t) goes with low exposure. Broadly, the Cmax is the highest concentration seen after dosing. Broadly, the Tmax is the time at which the peak concentration occurs.

Take `CCS(=O)(=O)N1CCC(Nc2ncc(Cl)c(-c3cc(F)c4nc(N5CCOC5=O)n(C(C)C)c4c3)n2)CC1` [TB-31]: the “HL—” value in series [1] was found to be 1.34 h. Also, the IC50 in series [2], in series [3] and in series [4] was no more than 500 nM in each case.

Regarding `CC(C)n1c(N2CCOC2=O)nc2c(F)cc(-c3nc(N[C@@H]4CCOC[C@H]4O)ncc3C(F)(F)F)cc21` [TB-27], the “HL—” value in series [1] stood at 3.69 h.

Turning to `CC(C)n1c(N2CCOCC2)nc2c(F)cc(-c3nc(N[C@@H]4CCOC[C@H]4O)ncc3Cl)cc21` [TB-12, (3S,4R)-4-((5-chloro-4-(4-fluoro-1-isopropyl-2-morpholino-1H-benzo[d]imidazol-6-yl)pyrimidin-2-yl)amino)tetrahydro-2H-pyran-3-ol], the “HL—” value in series [1] is recorded as 3.14 h. Further, the IC50 in series [2], in series [3] and in series [4] was no more than 500 nM throughout.

On to `CC(C)n1c(N2CCOC2=O)nc2c(F)cc(-c3nc(N[C@@H]4CCOC[C@H]4O)ncc3Cl)cc21` [TB-24], for which the “HL—” value in series [1] was 3.14 h.

Take `CC1CC(=O)N(C)c2nc3c(F)cc(-c4nc(N[C@@H]5CCOC[C@H]5O)ncc4Cl)cc3n21` (stereo partly drawn) [TA-53, 7-(5-chloro-2-(((3S,4R)-3-hydroxytetrahydro-2H-pyran-4-yl)amino)pyrimidin-4-yl)-9-fluoro-1,4-dimethyl-3,4-dihydrobenzo[4,5]imidazo[1,2-a]pyrimidin-2(1H)-one]: in series [1], the AUC(0-t) stood at 3530 ng·h/mL, the Cmax stood at 920 ng/mL, the Tmax was determined as 1 h and the “HL—” value worked out at 1.77 h.

Turning to `C[C@H]1CCN(C)c2nc3c(F)cc(-c4nc(N[C@@H]5CCOC[C@H]5O)ncc4Cl)cc3n21` [TB-92, (3S,4R)-4-((5-chloro-4-((S)-9-fluoro-1,4-dimethyl-1,2,3,4-tetrahydrobenzo[4,5]imidazo[1,2-a]pyrimidin-7-yl)pyrimidin-2-yl)amino)tetrahydro-2H-pyran-3-ol], the “HL—” value in series [1] is reported as 1.21 h. The IC50 in series [2], in series [3] and in series [4] was no more than 500 nM throughout.

On to `CC(C)c1c(C(C)(C)O)nc2ccc(-c3nc(N[C@@H]4CCOC[C@H]4O)ncc3Cl)cn12` [TA-25, (3S,4R)-4-((5-chloro-4-(2-(2-hydroxypropan-2-yl)-3-isopropylimidazo[1,2-a]pyridin-6-yl)pyrimidin-2-yl)amino)tetrahydro-2H-pyran-3-ol], for which, in series [1], the AUC(0-t) turned out to be 4470 ng·h/mL, the Cmax is 611 ng/mL, the Tmax is 3.33 h and the “HL—” value came to 1.69 h.

Source of the values: patent publication US20260078114A1, “COMPOUND USED AS INHIBITOR OF CDK4 KINASE AND USE THEREOF” (TYK MEDICINES, INC., priority 2022, published 2026).
